Laboratory results: US5091299A, “An enzyme electrode for use in organic solvents” (priority 1987, dated 1992)
Several values for one entry are separate records, joined by “and”; a condition that tells them apart may be missing. Equal values may be shown once.

Assays:
[1] = system: Polyphenol oxidase (tyrosinase); assay: Electrode specificity, response of the enzyme electrode to ten phenols; format: biochemical; conditions: phenol 100 μM, single electrode, chloroform
[2] = system: Polyphenol oxidase (tyrosinase); assay: Calibration of the polyphenol oxidase enzyme electrode with p-cresol in chloroform; conditions: after addition of p-cresol, -275 mV vs SCE
[3] = system: Polyphenol oxidase (tyrosinase); assay: Storage stability of the enzyme electrode, response to p-cresol; conditions: p-cresol 200 μM
[4] = system: Polyphenol oxidase (tyrosinase); assay: Operational stability of the enzyme electrode, sixteen consecutive p-cresol assays; conditions: p-cresol 100 μM
[5] = room temp. (20° C.), stored dry
[6] = room temp. (20° C.), stored in CHCl3

## Oc1ccccc1 [phenol]
[1]
  Electrode response: 6.4 μA

## Cc1ccc(O)c(O)c1 [4-methylcatechol]
[1]
  Electrode response: 6.7 μA

## O=Cc1ccc(O)cc1 [p-hydroxy-benzaldehyde]
[1]
  Electrode response: 0.0 μA
  whether the electrode responded: responded to all the phenols tested except

## O=Cc1cccc(O)c1 [m-hydroxy-benzaldehyde]
[1]
  Electrode response: 0.0 μA
  whether the electrode responded: responded to all the phenols tested except

## Cc1ccc(O)cc1 [p-cresol]
[2]
  time for the current increase to reach a steady value: 3 to 5 min
[1]
  Electrode response: 5.6 μA
[3]; 5° C., stored dry
  Initial response: 4.3 μA and 3.7 μA
  Response after 3 days: 4.4 μA and 4.5 μA
  Response after 48 days: 4.7 μA and 3.5 μA
[3]; 5° C., stored in CHCl3
  Initial response: 4.8 μA and 3.8 μA
  Response after 3 days: 8.1 μA and 9.5 μA
  Response after 48 days: 10.0 μA and 7.6 μA
[3]; electrodes stored at 5° C.
  decrease in response: no significant decrease
[3]; electrodes stored at room temperature, after three days
  average loss of activity (of the response): 30%
[3]; [5]
  Initial response: 5.2 μA and 4.8 μA
  Response after 3 days: 6.8 μA and 5.4 μA
  Response after 48 days: 3.6 μA and 2.8 μA
[3]; [6]
  Initial response: 4.0 μA and 4.2 μA
  Response after 3 days: 7.0 μA and 7.2 μA
  Response after 48 days: 5.5 μA and 6.5 μA
[4]
  Electrode response after the first three assays: 4.0 μA
[4]; start of series of sixteen assays
  Electrode response, first assay: 1.9 μA
[4]; started to fall after assay fourteen
  Electrode response over the next eleven assays: remained stable

## Cc1cccc(O)c1 [m-cresol]
[1]
  Electrode response: 4.7 μA

## Cc1ccccc1O [o-cresol]
[1]
  Electrode response: 0.0 μA
  whether the electrode responded: responded to all the phenols tested except

## Oc1ccc(Cl)cc1 [4-chlorophenol]
[1]
  Electrode response: 3.1 μA

## Nc1ccc(O)cc1 [p-aminophenol]
[1]
  Electrode response: 2.4 μA

## Oc1ccccc1O [catechol]
[1]
  Electrode response: 8.6 μA
